The text below walks through data of patent US12256735B2, “Insecticidal combinations” (UPL LTD, priority 2018, dated 2025).

Series [1] relates to mites in Brinjal. Briefly: Trial of efficacy on mites in Brinjal. It counts as in vivo. How it is done: Trials were conducted to test the efficacy of the combination of Chlorantraniliprole+Bifenthrin+Bifenazate on mites in Brinjal: […]
Series [2] deals with Lucinodes arbonalis. Briefly: Trial of efficacy on Lucinodes arbonalis in Brinjal. The series is classed as in vivo. How it is done:
Trials were conducted to test the efficacy of the combination of Chlorantraniliprole+Bifenthrin+Bifenazate on Lucinodes arbonalis in Brinjal: […]

For `COc1ccc(-c2ccccc2)cc1NNC(=O)OC(C)C` [Bifenazate], in series [1] (dose 150 gm. ai/ha), the “% mortality 3 DAA” value is 65%, the “% mortality 7 DAA” value turned out to be 95.1%, the “% mortality 10 DAA” value was 85% and the “% mortality 14 DAA” value is recorded as 75%. Moreover, in series [2] (dose 150 gm. ai/ha), the “% mortality 3 DAA” value is 9.9%, the “% mortality 7 DAA” value is given as 12%, the “% mortality 10 DAA” value was 10.9% and the “% mortality 14 DAA” value was 7.9%.
As to `CNC(=O)c1cc(Cl)cc(C)c1NC(=O)c1cc(Br)nn1-c1ncccc1Cl` [Chlorantraniliprole], in series [1] (dose 30 gm. ai/ha), the “% mortality 3 DAA” value is recorded as 9.9%, the “% mortality 7 DAA” value came out at 8.9%, the “% mortality 10 DAA” value was found to be 7.9% and the “% mortality 14 DAA” value is on record as 10.9%. Also, in series [2] (dose 30 gm. ai/ha), the “% mortality 3 DAA” value worked out at 80%, the “% mortality 7 DAA” value was 90.1%, the “% mortality 10 DAA” value worked out at 89.1% and the “% mortality 14 DAA” value worked out at 79%.
Take `Cc1c(COC(=O)[C@@H]2[C@H](/C=C(\Cl)C(F)(F)F)C2(C)C)cccc1-c1ccccc1` (racemic) [Bifenthrin]: in series [1] (dose 40 gm. ai/ha), the “% mortality 3 DAA” value is 75%, the “% mortality 7 DAA” value was 80%, the “% mortality 10 DAA” value is on record as 75% and the “% mortality 14 DAA” value came out at 65%. In series [2] (dose 40 gm. ai/ha), the “% mortality 3 DAA” value is 55%, the “% mortality 7 DAA” value turned out to be 65%, the “% mortality 10 DAA” value came out at 53% and the “% mortality 14 DAA” value is 41%.
